Measurements from publication PMC8543028 (Infection and Drug Resistance, 2021).

Key:
[1] = test system: M. tuberculosis H37Rv ATCC 27294 reference strain; type: cell-based, Mycobacterium tuberculosis
[2] = test system: M. tuberculosis H37Ra; type: cell-based, Mycobacterium tuberculosis

## O=[N+]([O-])c1ccc(/C(O)=C/C(=S)S)cc1 [Compound 11e, (Z)-3-hydroxy-3-(4-nitrophenyl)-prop-2-enedithioic acid]
[1]
  inhibitory activity compared with 11a: eight times that of 11a
[2]
  MIC100 in H37Ra: active
